This note sets out measurements from US4514573A, “Isoprenylamine derivatives” (priority 1981, dated 1985).

SMILES strings stand for the structures. Some results are limits rather than exact numbers.

In one series the test system is vaccinia virus. Briefly: animal or person. It is filed as in vivo, ICR female mice. As to conditions: Orthopoxvirus vaccinia, in Mus musculus, ip, 192 h, read-out: Prevention from vaccinia infection (Pock inhibition rate %).
For the compound `CC(C)=CCCC(C)=CCCC(C)=CCCC(C)=CCCC(C)=CCCC(C)=CCCC(C)=CCCC(C)=CCCC(C)=CCCC(C)=CCNCCCc1ccccc1` [drawing 28], the inhibition in vivo at 50 mg/kg came out at 68.1%.
On the same count and under the same terms, in the case of `COc1ccc(CNCC=C(C)CCC=C(C)CCC=C(C)CCC=C(C)CCC=C(C)CCC=C(C)CCC=C(C)CCC=C(C)CCC=C(C)CCC=C(C)C)cc1` [drawing 39] it was 58.8%.
Still for that read-out and setting: in the case of `COc1ccc(CCNCC=C(C)CCC=C(C)CCC=C(C)CCC=C(C)CCC=C(C)CCC=C(C)CCC=C(C)CCC=C(C)CCC=C(C)CCC=C(C)C)cc1OC` [drawing 37] it was 68.1%.
The same measure, in the same setting: the same measure for `CC(C)=CCCC(C)=CCCC(C)=CCCC(C)=CCCC(C)=CCCC(C)=CCCC(C)=CCCC(C)=CCCC(C)=CCCC(C)=CCNCC(O)c1ccccc1` (stereo not shown) [drawing 43]: 64.4%; for `COc1ccc(CNCC=C(C)CCC=C(C)CCC=C(C)CCC=C(C)CCC=C(C)CCC=C(C)CCC=C(C)CCC=C(C)CCC=C(C)C)cc1OC` [drawing 40]: 54.1%; for `COc1cc(CNCC=C(C)CCC=C(C)CCC=C(C)CCC=C(C)CCC=C(C)CCC=C(C)CCC=C(C)CCC=C(C)CCC=C(C)CCC=C(C)C)ccc1O` [drawing 38]: 67.1%.
With `CC(C)=CCCC(C)=CCCC(C)=CCCC(C)=CCCC(C)=CCCC(C)=CCCC(C)=CCCC(C)=CCCC(C)=CCCC(C)=CCNc1ccc(C(=O)O)cc1` [drawing 26], the inhibition in vivo at 50 mg/kg came out at 15%.
On the same count and under the same terms, the same measure for `CC(C)=CCCC(C)=CCCC(C)=CCCC(C)=CCCC(C)=CCCC(C)=CCCC(C)=CCCC(C)=CCCC(C)=CCCC(C)=CCNCc1ccc(Cl)cc1` [drawing 32]: 34%; for `CC(C)=CCCC(C)=CCCC(C)=CCCC(C)=CCCC(C)=CCCC(C)=CCCC(C)=CCCC(C)=CCCC(C)=CCCC(C)=CCNC(c1ccccc1)c1ccccc1` [drawing 34]: 14.8%; for `COc1cccc(CNCC=C(C)CCC=C(C)CCC=C(C)CCC=C(C)CCC=C(C)CCC=C(C)CCC=C(C)CCC=C(C)CCC=C(C)CCC=C(C)C)c1OC` [drawing 42]: 32.5%.
As for `CC(C)=CCCC(C)=CCCC(C)=CCCC(C)=CCCC(C)=CCCC(C)=CCCC(C)=CCCC(C)=CCCC(C)=CCCC(C)=CCNCc1ccc(C)cc1` [drawing 31], the inhibition in vivo at 50 mg/kg is 44.8%.
On the same count and under the same terms, in the case of `CC(C)=CCCC(C)=CCCC(C)=CCCC(C)=CCCC(C)=CCCC(C)=CCCC(C)=CCCC(C)=CCCC(C)=CCCC(C)=CCNCc1cccc(CN)c1` [drawing 41] it was 91.4%; in that of `CC(C)=CCCC(C)=CCCC(C)=CCCC(C)=CCCC(C)=CCCC(C)=CCCC(C)=CCCC(C)=CCCC(C)=CCCC(C)=CCNCCCCc1ccccc1` [drawing 36], 40.3%; in that of `COc1ccc(CNC/C=C(\C)CCC=C(C)C)cc1OC`, 10%.
Same read-out and setting: the same measure for `CC(C)=CCCC(C)=CCCC(C)=CCCC(C)=CCCC(C)=CCCC(C)=CCCC(C)=CCCC(C)=CCCC(C)=CCCC(C)=CCNCc1cccc2ccccc12` [drawing 30]: 21.6%; for `CC(C)=CCCC(C)=CCCC(C)=CCCC(C)=CCCC(C)=CCCC(C)=CCCC(C)=CCCC(C)=CCCC(C)=CCCC(C)=CCNc1ccc(C(=O)O)c(O)c1` [drawing 27]: 42.9%; for `CC(C)=CCCC(C)=CCCC(C)=CCCC(C)=CCCC(C)=CCCC(C)=CCCC(C)=CCCC(C)=CCCC(C)=CCCC(C)=CCNCc1ccc([N+](=O)[O-])cc1` [drawing 29]: 47.7%.
The same measure, in the same setting: in the case of `CC(C)=CCCC(C)=CCCC(C)=CCCC(C)=CCCC(C)=CCCC(C)=CCCC(C)=CCCC(C)=CCCC(C)=CCCC(C)=CCNCCc1ccc(N)cc1` [drawing 35] it was 64.4%; in that of `COc1ccc(CNCC=C(C)CCC=C(C)CCC=C(C)CCC=C(C)CCC=C(C)CCC=C(C)CCC=C(C)CCC=C(C)CCC=C(C)CCC=C(C)C)cc1OC` [drawing 33], 35.4%.

System in another series: not listed separately
Briefly: Toxicity (50% lethal dose, intravenous). As to conditions: mouse, in vivo, ddY male mice 20-25 g, read-out: LD50 (Intravenously administered mg/kg). From the text: Using ddY male mice weighing 20-25 g, 50% lethal dose of each test compound when intravenously administered was obtained, the results of which are shown in Table 5.
As to `CC(C)=CCCC(C)=CCCC(C)=CCCC(C)=CCCC(C)=CCCC(C)=CCCC(C)=CCCC(C)=CCCC(C)=CCCC(C)=CCNCc1ccc(Cl)cc1` [drawing 64], the LD50 was 371 mg/kg.
The same measure, in the same setting: in the case of `COc1cccc(CNCC=C(C)CCC=C(C)CCC=C(C)CCC=C(C)CCC=C(C)CCC=C(C)CCC=C(C)CCC=C(C)CCC=C(C)CCC=C(C)C)c1OC` [drawing 70] it was 30 mg/kg; in that of `CC(C)=CCCC(C)=CCCC(C)=CCCC(C)=CCCC(C)=CCCC(C)=CCCC(C)=CCCC(C)=CCCC(C)=CCCC(C)=CCNCc1ccc(C)cc1` [drawing 63], 123 mg/kg; in that of `CC(C)=CCCC(C)=CCCC(C)=CCCC(C)=CCCC(C)=CCCC(C)=CCCC(C)=CCCC(C)=CCCC(C)=CCCC(C)=CCNc1ccc(C(=O)O)c(O)c1` [drawing 60], 45 mg/kg.
In the case of `CC(C)=CCCC(C)=CCCC(C)=CCCC(C)=CCCC(C)=CCCC(C)=CCCC(C)=CCCC(C)=CCCC(C)=CCCC(C)=CCNCc1cccc2ccccc12` [drawing 62], the LD50 came to 207 mg/kg.
The same measure, in the same setting: the same measure for `COc1ccc(CNCC=C(C)CCC=C(C)CCC=C(C)CCC=C(C)CCC=C(C)CCC=C(C)CCC=C(C)CCC=C(C)CCC=C(C)CCC=C(C)C)cc1` [drawing 68]: 68 mg/kg; for `COc1ccc(CNCC=C(C)CCC=C(C)CCC=C(C)CCC=C(C)CCC=C(C)CCC=C(C)CCC=C(C)CCC=C(C)CCC=C(C)CCC=C(C)C)cc1OC` [drawing 65]: 56.8 mg/kg; for `CC(C)=CCCC(C)=CCCC(C)=CCCC(C)=CCCC(C)=CCCC(C)=CCCC(C)=CCCC(C)=CCCC(C)=CCCC(C)=CCNCc1ccc([N+](=O)[O-])cc1` [drawing 61]: above 269 mg/kg.
The same measure, in the same setting: in the case of `CC(C)=CCCC(C)=CCCC(C)=CCCC(C)=CCCC(C)=CCCC(C)=CCCC(C)=CCCC(C)=CCCC(C)=CCCC(C)=CCNCCc1ccc(N)cc1` [drawing 67] it was 28 mg/kg.

Another series has as its system Human interferon; normal diploid cells (fibroblast). The series is described as follows: Human interferon-inducing activity (in vitro), 3H-uridine-uptake inhibition. It is filed as cell-based. As to conditions: 25 n molar suspension. The protocol: Interferon was induced according to the method of Edward A. Havell et al. by treating normal diploid cells (fibroblast) originated from human being with each test compound in the form of ethanol solution diluted with PBS (-) (25 n molar suspension). Using the radioisotope microassay method of H. Ishitsuka et al., interferon was measured in terms of 3H-uridine-uptakeinhibition rate.
As to `COc1cc(CNCC=C(C)CCC=C(C)CCC=C(C)CCC=C(C)CCC=C(C)CCC=C(C)CCC=C(C)CCC=C(C)CCC=C(C)C)cc(OC)c1OC`, the “Human interferon 3H uridine-uptake inhibition rate %” value is given as 21.5%.
Same read-out and setting: the same measure for `COc1ccc(CNCC=C(C)CCC=C(C)CCC=C(C)CCC=C(C)CCC=C(C)CCC=C(C)CCC=C(C)CCC=C(C)CCC=C(C)C)cc1OC` [drawing 83]: 86.9%.
Take `CC(C)=CCCC(C)=CCCC(C)=CCCC(C)=CCCC(C)=CCCC(C)=CCCC(C)=CCCC(C)=CCCC(C)=CCCC(C)=CCNCc1cccc2ccccc12` [drawing 75]: the “Human interferon 3H uridine-uptake inhibition rate %” value worked out at 13.7%.
The same measure, in the same setting: in the case of `CC(C)=CCCC(C)=CCCC(C)=CCCC(C)=CCCC(C)=CCCC(C)=CCCC(C)=CCCC(C)=CCCC(C)=CCCC(C)=CCNCC(O)c1ccccc1` (stereo not shown) [drawing 86] it was 37.6%; in that of `COc1cccc(CNCC=C(C)CCC=C(C)CCC=C(C)CCC=C(C)CCC=C(C)CCC=C(C)CCC=C(C)CCC=C(C)CCC=C(C)CCC=C(C)C)c1OC` [drawing 85], 26.6%; in that of `CC(C)=CCCC(C)=CCCC(C)=CCCC(C)=CCCC(C)=CCCC(C)=CCCC(C)=CCCC(C)=CCCC(C)=CCCC(C)=CCNCc1ccc(Cl)cc1` [drawing 77], 75.7%.
The same measure, in the same setting: the same measure for `COc1cc(CNCC=C(C)CCC=C(C)CCC=C(C)CCC=C(C)CCC=C(C)CCC=C(C)CCC=C(C)CCC=C(C)CCC=C(C)CCC=C(C)C)ccc1O` [drawing 81]: 41.9%.
Same read-out and setting: in the case of `CC(C)=CCCC(C)=CCCC(C)=CCCC(C)=CCCC(C)=CCCC(C)=CCCC(C)=CCCC(C)=CCCC(C)=CCCC(C)=CCNCCCCc1ccccc1` [drawing 79] it was 67.2%; in that of `COc1ccc(CNCC=C(C)CCC=C(C)CCC=C(C)CCC=C(C)CCC=C(C)CCC=C(C)CCC=C(C)CCC=C(C)CCC=C(C)CCC=C(C)C)cc1OC` [drawing 78], 77.8%; in that of `COc1ccc(CNCC=C(C)CCC=C(C)CCC=C(C)CCC=C(C)CCC=C(C)CCC=C(C)CCC=C(C)CCC=C(C)CCC=C(C)CCC=C(C)C)cc1` [drawing 82], 61.4%.
Turning to `CC(C)=CCCC(C)=CCCC(C)=CCCC(C)=CCCC(C)=CCCC(C)=CCCC(C)=CCCC(C)=CCCC(C)=CCCC(C)=CCNc1ccc(C(=O)O)cc1` [drawing 71], the “Human interferon 3H uridine-uptake inhibition rate %” value turned out to be 12.7%.
Still for that read-out and setting: in the case of `CC(C)=CCCC(C)=CCCC(C)=CCCC(C)=CCCC(C)=CCCC(C)=CCCC(C)=CCCC(C)=CCCC(C)=CCCC(C)=CCNCCCc1ccccc1` [drawing 73] it was 17.7%.
`CC(C)=CCCC(C)=CCCC(C)=CCCC(C)=CCCC(C)=CCCC(C)=CCCC(C)=CCCC(C)=CCCC(C)=CCCC(C)=CCNCc1ccc([N+](=O)[O-])cc1` [drawing 74]: the “Human interferon 3H uridine-uptake inhibition rate %” value is 23.6%.
With `CC(C)=CCCC(C)=CCCC(C)=CCCC(C)=CCCC(C)=CCCC(C)=CCCC(C)=CCCC(C)=CCCC(C)=CCCC(C)=CCNCc1ccc(C)cc1` [drawing 76], the “Human interferon 3H uridine-uptake inhibition rate %” value is reported as 91.1%.
On the same count and under the same terms, the same measure for `COc1ccc(CCNCC=C(C)CCC=C(C)CCC=C(C)CCC=C(C)CCC=C(C)CCC=C(C)CCC=C(C)CCC=C(C)CCC=C(C)CCC=C(C)C)cc1OC` [drawing 80]: 32.5%; for `CC(C)=CCCC(C)=CCCC(C)=CCCC(C)=CCCC(C)=CCCC(C)=CCCC(C)=CCCC(C)=CCCC(C)=CCCC(C)=CCNc1ccc(C(=O)O)c(O)c1` [drawing 72]: 39.8%; for `CC(C)=CCCC(C)=CCCC(C)=CCCC(C)=CCCC(C)=CCCC(C)=CCCC(C)=CCCC(C)=CCCC(C)=CCCC(C)=CCNCc1cccc(CN)c1` [drawing 84]: 20.2%.
Same read-out and setting: in the case of `COc1ccc(CNCC=C(C)CCCC(C)CCCC(C)CCCC(C)C)cc1OC` (stereo not shown) [drawing 87] it was 1.8%.
